The numbers were not newly measured in US20070141182A1, “Combination of multiple nonteroidal antiinflammatory drugs and muscle relaxants for local treatment of musculoskeletal pain” (priority 2005, published 2007), which cites them from elsewhere.

For data set [1] the following is noted: compared with more traditional NSAIDs.
For data set [2] the following is noted: for patient ratings of efficacy versus placebo: topical commercial forms.
For data set [3] the following is noted: 75 mg/ml in the donor gel, human skin.
For data set [4] the following is noted: dissolved in lecithin microemulsion gel.
The conditions of data set [5]: topical gel, 6 patients.
For data set [6] the following is noted: 2.5% gel daily, 10 healthy subjects.

With `CC(=O)Oc1ccccc1C(=O)O` [ASA, acetylsalicylic acid], under “oral ASA 500 mg”, the “decrease in pain (VAS)” value is given as 15.4%. The “patients with a poor response” value (oral administration) was 79%. Consider `CC(C(=O)O)c1ccc(-c2ccccc2)c(F)c1` (centres unmarked) [Flurbiprofen, flurbiprofen], for which the “COX-1 / COX-2 isoform selectivity of inhibition” value in the data set with COX-1 and COX-2 is “inhibit both COX-1 and COX-2 equally”. As for `COc1ccc2cc(CCC(C)=O)ccc2c1` [Nabumetone], the “incidence of gastric lesions” value in [1] is listed as “lower incidence of gastric lesions”. Moreover, in the data set on COX-1 and COX-2, the “COX-1 / COX-2 isoform selectivity of inhibition” value is on record as “more selectively inhibit COX-2”. With `CN1C(C(=O)Nc2ccccn2)=C(O)c2ccccc2S1(=O)=O` [Piroxicam, piroxicam], the “patient ratings of efficacy versus placebo” value in data set [2] is reported as “superior efficacy”. For the same molecule, in the data set on COX-1 and COX-2, the “COX-1 / COX-2 isoform selectivity of inhibition” value is listed as “preferentially inhibit COX-1”.

For the molecule `CC(C)(C)NCC(O)c1cc(Br)no1` (centres unmarked) [broxaterol], the “flux through the skin” value in [3] is given as 47 μg.h^−1 cm^−2. Turning to `O=C(O)Cc1ccccc1Nc1c(Cl)cccc1Cl` [diclofenac], in data set [4], the steady-state flux entry was “about 1 μg h^−1 cm^−2”. Consider `CCc1cccc2c3c([nH]c12)C(CC)(CC(=O)O)OCC3` (centres unmarked) [etodolac], for which, in [1], the “incidence of gastric lesions” value is “lower incidence of gastric lesions”. The “COX-1 / COX-2 isoform selectivity of inhibition” value in the data set with COX-1 and COX-2 is listed as “more selectively inhibit COX-2”.

Consider `CC(C)Cc1ccc(C(C)C(=O)O)cc1` (centres unmarked) [ibuprofen], for which, in data set [2], the “patient ratings of efficacy versus placebo” value was “superior efficacy”. The “COX-1 / COX-2 isoform selectivity of inhibition” value with COX-1 and COX-2 is “inhibit both COX-1 and COX-2 equally”. On to `COc1ccc2c(c1)c(CC(=O)O)c(C)n2C(=O)c1ccc(Cl)cc1` [indomethacin], for which, in data set [4], the steady-state flux result is on record as “about 1 μg h^−1 cm^−2”. For the same molecule, the “efficacy of topical versus oral administration” value in data set [2] (human, in vivo, po) is “as effective as therapeutic doses of oral indomethacin”. Also, the “patient ratings of efficacy versus placebo” value in [2] is on record as “superior efficacy”. Besides, the “COX-1 / COX-2 isoform selectivity of inhibition” value with COX-1 and COX-2 was “preferentially inhibit COX-1”. Consider `CC(C(=O)O)c1cccc(C(=O)c2ccccc2)c1` (centres unmarked) [ketoprofen], for which, in [5], the “ketoprofen concentration in capsular sample” value was 2.35 µg/g, the “ketoprofen concentration in intra-articular adipose tissue” value was 4.7 µg/g and the “ketoprofen concentration in synovial fluid” value is 1.4 µg/g. The “patient ratings of efficacy versus placebo” value in data set [2] was “superior efficacy”. In data set [6], the “plasma concentrations as share of the daily dose applied” value is recorded as 2.6%. `Cc1ccc(Cl)c(Nc2ccccc2C(=O)O)c1Cl` [meclofenamate]: the “COX-1 / COX-2 isoform selectivity of inhibition” value with COX-1 and COX-2 is “inhibit both COX-1 and COX-2 equally”. For the molecule `CS(=O)(=O)c1ccc(C2=C(c3ccccc3)C(=O)OC2)cc1` [rofecoxib], the “COX-1 / COX-2 isoform selectivity of inhibition” value in the data set on COX-1 and COX-2 was “highly selective and potent inhibitors of COX-2”. Consider `O=C(Oc1ccccc1C(=O)O)c1ccccc1O` [salsalate], for which the inhibition of prostaglandins result in the data set with prostaglandins is “only weakly inhibit prostaglandins”. As for magnesium choline trisalicylate, the inhibition of prostaglandins entry with prostaglandins is “only weakly inhibit prostaglandins”.
